# Measured values from patent publication US8563738B2, “Ligands for copper-catalyzed azide-alkyne cycloaddition reactions” (The Scripps Research Institute, priority 2007, dated 2013).
# Entries after “also recorded” stand apart in the source; their conditions may differ.
# What was measured:
# Solubility of ligands = details: for solubility in common organic solvents: including DMSO
# [1] = Second-order rate constants of CuAAC reaction by LC-MS of quenched aliquots; details: for relative catalytic rate (second-order specific activity): ligand:Cu 2:1, 0.1 mM Cu, 1-2 mM substrates, 4:1 DMSO:aqueous buffer, sodium ascorbate; for change in rate with pH: pH of the aqueous component raised from 7 to 8
# Method: The relative effectiveness of Cu-ligand complexes was evaluated on the reaction between phenylacetylene and benzyl azide in 4:1 DMSO:aqueous buffer containing sodium ascorbate as reducing agent, which has served as the standard reaction in previous mechanistic studies (Rodionov, V. O.; et al. Angew. Chem. Int. Ed. 2005, 44, 2210-2215). Ligand:Cu ratios are used herein to describe the amounts of each component added, and designate mixtures of ligands and copper ions according to those ratios for convenience. However, it must be emphasized that the active catalysts are not necessarily composed of those same ratios of ligand and metal as are placed in the reaction vessel. The equilibria that govern the composition of these catalysts are discussed below, and their study will be the subject of a separate publication.
# Absolute rates were determined under relatively dilute conditions (1-2 mM in substrates), which were required to slow the reactions enough so that aliquots could be reliably taken over a substantial fraction of the completion curve. Each aliquot was immediately quenched and the amount of product formed monitored by quantitative LC-MS against an internal standard. In this way, the clean conversion to triazole was verified in each case, information that is not available by following the disappearance of azide or alkyne by infrared spectroscopy. Plots of product concentrations vs. time fitted very well to second-order kinetics over at least 70% of the reaction (FIG. 2A). […] For this reason, comparisons were made between second-order specific activities (rate constants determined at a standard Cu concentration of 0.1 mM) for catalysts composed of 2:1 mixtures of ligands and Cu(I), in the presence of excess ascorbate relative to Cu.
# Reagent stock solutions were freshly prepared before use. In a typical experiment, reactions were set up in the first column of a deep-well polypropylene microtiter plate (2.5 mL well volume). 100 μL of 30% H2O2 and 100 μL of ethanol were dispensed into all other wells.
# The reactions were started by the addition of the final component (typically CuSO4 solution). Aliquots of 100 μL were taken at 1-5 minute intervals from the reaction wells with a multichannel pipetman, and transferred to the subsequent columns of wells for quenching. After the desired number of aliquots have been quenched in this fashion, the contents of the plate were transferred to a standard polystyrene 96-well plate for analysis.
# LC-MS analysis was performed on an Agilent 1100 (G1946D) instrument, equipped with a 35 mm Agilent ZORBAX® 3.5μ or 1.8μ SB-C18 column. The elution solvent for the detection of 1-benzyl-4-phenyl-1,2,3-triazole was 55:45 H2O:CH3CN, with 0.5% TFA. Analysis of the other triazole products required a solvent gradient (typically from 50:50 to 25:75 H2O:CH3CN, 0.5% TFA over the course of 4-5 minutes). Detection was performed in single ion mode (SIM), which typically allowed for quantitative triazole detection down to 0.1 μM. 1-benzyl-4-phenyl-1,2,3-triazole-d7 was used as internal reference for all experiments.
# Equations (2) and (3) were used to find the value of k (kobs) that gives the best fit curve to the experimental data of [P] vs. time.
# FIG. 2 summarizes the rate data. Note that the rate constants obtained here are really specific activities at 0.10 mM Cu catalyst concentration. Very similar results were obtained at pH 8 in the presence of 180 mM vs. 10 mM HEPES buffer.
# FIG. 2B. Conditions: 1 mM BnN3, 2 mM PhCCH, 0.1 mM CuSO4, 0.2 mM ligand, 4:1 DMSO:HEPES (180 mM), 25 mM NaAsc; pH verified with meter after ascorbate addition. The dots mark observed data points; the solid line is the best second-order fit; an initial “burst” of catalytic activity was not counted in the reported rate constants. Experimental error in rate constants upon repeat measurement is <15% (usually ca. 10%), except where noted.
# FIG. 2C. […]
# [2] = as above; details: 4:1 DMSO:buffer, Tris buffer over a standard range of concentrations
# [3] = Ligand screening by reaction calorimetry (peak reaction power); design: key to calorimetry ligand category: reactions that failed to produce a signal in the calorimeter were classified as identifying “inactive” ligands; moderate: give observable, but not very strong, calorimetry signals; details: 65° C.; for relative catalytic activity by calorimetry: high reactant concentrations, 1% Cu, 4:1 DMSO:aqueous
# Excerpt: Reaction calorimetry was used to evaluate the relative merits of various ligands under practical conditions of organic synthesis, e.g., involving high concentrations of azide and alkyne reagents and low loadings of catalyst. After correction for instrumental heat transfer parameters, thermograms provide a direct real-time measure of reaction rate (power output); integration gives the overall time-vs.-completion curve. […] All such measurements were made in the same 4:1 DMSO:aqueous solvent as before, but at 65° C. rather than room temperature, in order to keep the product triazole in solution at the higher concentrations used.
# Calorimetry was performed in an Omnical INSIGHT® 10-channel reaction calorimeter using 40 mL glass vials. In a typical run all the reaction components but one were introduced into the vials inside an inert atmosphere glovebox, and vials were sealed with septum caps. The last reaction component to be added was placed in a Hamilton gastight syringe. The vials and syringes were then allowed to equilibrate inside the preheated instrument (65° C.) for 30 minutes. The reaction was started in all vials by depressing all of the syringes simultaneously. Two vials out of ten were charged only with solvent to obtain readings allowing for compensation for the heat of mixing. The thermograms registered in these two channels upon addition of the last component were used to construct the baseline for the other 8 channels.
# Since heat is not transferred to the instrument sensor instantaneously, the thermogram registered by the instrument is dependent on the characteristics of the instrument and reaction vessel. Correction for these extraneous factors must be applied to the recorded thermograms to obtain instrument-independent data (Rosner, T.; et al. J. Am. Chem. Soc. 2001, 123, 1848-1855; Liu, J.-S.; et al. Thermochimica Acta 1994, 236, 113-122). The appropriate dynamic correction function is built into the instrument operating software. Use of vendor supplied software produces the same result as manual correction.
# By the same token, catalysts such as Cu.1 that give observable, but not very strong, calorimetry signals cannot be fully analyzed by converting thermograms to completion curves, because a significant amount of the total energy output is lost below the detection threshold of the instrument. TBTA (1) falls into this category, classified as “moderate” ligands. […] However, peak power values (i.e., maximum reaction rate) provided a reproducible relative measure of relative catalytic efficiency.
# Ligands were screened under the following conditions: 250 mM benzyl azide, 454 mM phenylacetylene, 2 mM CuSO4, 4 mM ligand, 25 mM sodium ascorbate. Phenylacetylene was the last component added. Initial screening was performed with at least two independent trials for each ligand. Candidates showing promising activity were then examined with at least three independent trials to obtain reliable estimations of experimental error.
solubility in common organic solvents (Solubility of ligands),Structure (SMILES),relative catalytic rate (second-order specific activity) [1],effect of Tris buffer on rate [2],change in rate with pH [1],relative catalytic activity by calorimetry [3],further results
unusually low solubility,Cn1c(CN(Cc2nc3ccccc3n2C)Cc2nc3ccccc3n2C)nc2ccccc21 [(BimC1H)3],performing as well as the parent structure (BimH)3,,,,
,"c1ccc2[nH]c(CN(Cc3nc4ccccc4[nH]3)Cc3nc4ccccc4[nH]3)nc2c1 [(BimH)3, Tris-(2-benzimidazolylmethyl)amine, reference compound]",,slowed significantly,more sensitive,,
,O=C([O-])Cn1c(CN(Cc2nc3ccccc3n2CC(=O)[O-])Cc2nc3ccccc3n2CC(=O)[O-])nc2ccccc21.[K+].[K+].[K+] [(BimC1A)3],one of the least effective catalysts in the series,,,,water solubility (Solubility of ligands; water): water-soluble
unusually low solubility,"c1ccc2sc(CN(Cc3nc4ccccc4s3)Cc3nc4ccccc4s3)nc2c1 [(Bth)3, Tris-(2-benzothiazolylmethyl)amine]",,,more sensitive,largely inactive,
,"c1ccc(Cn2cc(CN(Cc3cn(Cc4ccccc4)nn3)Cc3cn(Cc4ccccc4)nn3)nn2)cc1 [TBTA (1), tris((1-benzyl-1H-1,2,3-triazol-4-yl)methyl)amine, reference compound]",,slowed significantly,,sluggish catalyst compared to many of the others tested; also recorded: lower half of the ligands tested,"calorimetry ligand category ([3]; 250 mM benzyl azide, 454 mM phenylacetylene, 2 mM CuSO4, 4 mM ligand, 25 mM sodium ascorbate): moderate"
